System: 648629-189-R-J1-PDC spheroids with HUVEC/MSC, viability
Assay: Anticancer human tumor 648629-189-R-J1-PDC patient-derived bladder carcinoma cell line growth inhibition [PI3K]
Conditions: for IC50: curve of first compound; for viability, T/C: stronger effect = lower value; active = viability on the fitted dose curve at most 10% of control; inactive = the rest
Method in brief: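 Multi-cell spheroids combine tumor cells with HUVEC and human MSCs, treated with targeted agents alone or with inavolisib, alpelisib, duvelisib or copanlisib. Concentrations fall in half-log steps from at or near clinical Cmax, or from 10 microM where Cmax is unknown; viability read-out.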

[1] = second compound 0.0316 µM, first compound 0.00316 µM
[2] = second compound 0.0316 µM, first compound 0.01 µM
[3] = second compound 0.0316 µM, first compound 0.0316 µM
[4] = second compound 0.0316 µM, first compound 0.1 µM
[5] = second compound 0.0316 µM, first compound 0.316 µM
[6] = second compound 0.0316 µM, first compound 1 µM
[7] = second compound 0.1 µM, first compound 0.00316 µM
[8] = second compound 0.1 µM, first compound 0.01 µM
[9] = second compound 0.1 µM, first compound 0.0316 µM
[10] = second compound 0.1 µM, first compound 0.1 µM
[11] = second compound 0.1 µM, first compound 0.316 µM
[12] = second compound 0.1 µM, first compound 1 µM
[13] = second compound 0.316 µM, first compound 0.00316 µM
[14] = second compound 0.316 µM, first compound 0.01 µM
[15] = second compound 0.316 µM, first compound 0.0316 µM
[16] = second compound 0.316 µM, first compound 0.1 µM
[17] = second compound 0.316 µM, first compound 0.316 µM
[18] = second compound 0.316 µM, first compound 1 µM
[19] = second compound 1 µM, first compound 0.00316 µM
[20] = second compound 1 µM, first compound 0.01 µM
[21] = second compound 1 µM, first compound 0.0316 µM
[22] = second compound 1 µM, first compound 0.1 µM
[23] = second compound 1 µM, first compound 0.316 µM
[24] = second compound 1 µM, first compound 1 µM
[25] = second compound 3.16 µM, first compound 0.00316 µM
[26] = second compound 3.16 µM, first compound 0.01 µM
[27] = second compound 3.16 µM, first compound 0.0316 µM
[28] = second compound 3.16 µM, first compound 0.1 µM
[29] = second compound 10 µM, first compound 0.00316 µM
[30] = second compound 10 µM, first compound 0.01 µM
[31] = second compound 10 µM, first compound 0.0316 µM
[32] = second compound 10 µM, first compound 0.1 µM
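Note: spheroids exposed to agents for seven days before reading.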
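Throughout, for viability, T/C: percent of vehicle control luminescence where 100% = DMSO treated spheroids.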

CCN1CCN(Cc2ccc(Nc3ncc(F)c(-c4cc(F)c5nc(C)n(C(C)C)c5c4)n3)nc2)CC1 + CC(Nc1ncnc2nc[nH]c12)c1cc2cccc(Cl)c2c(=O)n1-c1ccccc1
inactive: viability, T/C [1] 90.1% | viability, T/C [2] 96.2% | viability, T/C [3] 105% | viability, T/C [4] 111% | viability, T/C [5] 113% | viability, T/C [6] 122% | viability, T/C [7] 107% | viability, T/C [8] 99.4% | viability, T/C [9] 103% | viability, T/C [10] 101% | viability, T/C [11] 101% | viability, T/C [12] 135% | viability, T/C [13] 105% | viability, T/C [14] 96.3% | viability, T/C [15] 98% | viability, T/C [16] 108% | viability, T/C [17] 113% | viability, T/C [18] 109% | viability, T/C [19] 106% | viability, T/C [20] 92.5% | viability, T/C [21] 100% | viability, T/C [22] 90.3% | viability, T/C [23] 103% | viability, T/C [24] 96.4% | viability, T/C [25] 85.8% | viability, T/C [26] 106% | viability, T/C [27] 86.8% | viability, T/C [28] 88.2% | viability, T/C (second compound 3.16 µM, first compound 0.316 µM) 111% | viability, T/C (second compound 3.16 µM, first compound 1 µM) 105% | viability, T/C [29] 85.6% | viability, T/C [30] 80.7% | viability, T/C [31] 84.4% | viability, T/C [32] 88% | viability, T/C (second compound 10 µM, first compound 0.316 µM) 87% | viability, T/C (second compound 10 µM, first compound 1 µM) 75.5%
> 1000 nM: IC50 (second compound 0.0316 µM) | IC50 (second compound 0.1 µM) | IC50 (second compound 0.316 µM) | IC50 (second compound 1 µM) | IC50 (second compound 3.16 µM) | IC50 (second compound 10 µM)

CCN1CCN(Cc2ccc(Nc3ncc(F)c(-c4cc(F)c5nc(C)n(C(C)C)c5c4)n3)nc2)CC1 + COc1c(OCCCN2CCOCC2)ccc2c3n(c(=NC(=O)c4cnc(N)nc4)nc12)CCN3
active: viability, T/C [19] 3.05% | viability, T/C [20] 2.93% | viability, T/C [21] 2.76% | viability, T/C [22] 4.51% | viability, T/C [23] 6.23% | viability, T/C [24] 9.27%
< 3.16 nM: IC50 (second compound 0.316 µM) | IC50 (second compound 1 µM)
> 1000 nM: IC50 (second compound 0.00316 µM) | IC50 (second compound 0.01 µM) | IC50 (second compound 0.0316 µM) | IC50 (second compound 0.1 µM)
inactive: viability, T/C (second compound 0.00316 µM, first compound 0.00316 µM) 91% | viability, T/C (second compound 0.00316 µM, first compound 0.01 µM) 94.8% | viability, T/C (second compound 0.00316 µM, first compound 0.0316 µM) 110% | viability, T/C (second compound 0.00316 µM, first compound 0.1 µM) 101% | viability, T/C (second compound 0.00316 µM, first compound 0.316 µM) 115% | viability, T/C (second compound 0.00316 µM, first compound 1 µM) 104% | viability, T/C (second compound 0.01 µM, first compound 0.00316 µM) 102% | viability, T/C (second compound 0.01 µM, first compound 0.01 µM) 87.8% | viability, T/C (second compound 0.01 µM, first compound 0.0316 µM) 98.9% | viability, T/C (second compound 0.01 µM, first compound 0.1 µM) 96.5% | viability, T/C (second compound 0.01 µM, first compound 0.316 µM) 103% | viability, T/C (second compound 0.01 µM, first compound 1 µM) 106% | viability, T/C [1] 84.9% | viability, T/C [2] 79% | viability, T/C [3] 91.3% | viability, T/C [4] 88.5% | viability, T/C [5] 87.9% | viability, T/C [6] 91% | viability, T/C [7] 58.6% | viability, T/C [8] 62.4% | viability, T/C [9] 56% | viability, T/C [10] 58.5% | viability, T/C [11] 66.6% | viability, T/C [12] 66.1% | viability, T/C [13] 21.4% | viability, T/C [14] 18.9% | viability, T/C [15] 18.8% | viability, T/C [16] 19.7% | viability, T/C [17] 24.1% | viability, T/C [18] 21.7%

CC(C)n1nc(-c2ccc3oc(N)nc3c2)c2c(N)ncnc21 + Cc1nc(NC(=O)N2CCCC2C(N)=O)sc1-c1ccnc(C(C)(C)C(F)(F)F)c1
56.7 nM: IC50 (second compound 0.1 µM)
52.7 nM: IC50 (second compound 0.316 µM)
11 nM: IC50 (second compound 3.16 µM)
33.3 nM: IC50 (second compound 1 µM)
58.6 nM: IC50 (second compound 0.0316 µM)
< 0.316 nM: IC50 (second compound 10 µM)
inactive: viability, T/C (second compound 0.0316 µM, first compound 0.000316 µM) 111% | viability, T/C (second compound 0.0316 µM, first compound 0.001 µM) 95.1% | viability, T/C [1] 109% | viability, T/C [2] 97.5% | viability, T/C [3] 70.2% | viability, T/C [4] 32.6% | viability, T/C (second compound 0.1 µM, first compound 0.000316 µM) 102% | viability, T/C (second compound 0.1 µM, first compound 0.001 µM) 94.9% | viability, T/C [7] 91.7% | viability, T/C [8] 84.6% | viability, T/C [9] 68% | viability, T/C [10] 32.8% | viability, T/C (second compound 0.316 µM, first compound 0.000316 µM) 87.3% | viability, T/C (second compound 0.316 µM, first compound 0.001 µM) 83.5% | viability, T/C [13] 83.5% | viability, T/C [14] 82% | viability, T/C [15] 66.1% | viability, T/C [16] 29.1% | viability, T/C (second compound 1 µM, first compound 0.000316 µM) 80.9% | viability, T/C (second compound 1 µM, first compound 0.001 µM) 85.2% | viability, T/C [19] 74.2% | viability, T/C [20] 64.5% | viability, T/C [21] 53.9% | viability, T/C [22] 23.2% | viability, T/C (second compound 3.16 µM, first compound 0.000316 µM) 63.9% | viability, T/C (second compound 3.16 µM, first compound 0.001 µM) 54.8% | viability, T/C [25] 60.5% | viability, T/C [26] 48.6% | viability, T/C [27] 40.7% | viability, T/C [28] 19.1% | viability, T/C (second compound 10 µM, first compound 0.000316 µM) 41.4% | viability, T/C (second compound 10 µM, first compound 0.001 µM) 37.5% | viability, T/C [29] 37.5% | viability, T/C [30] 33.6% | viability, T/C [31] 27.7% | viability, T/C [32] 9.34%

From PubChem BioAssay AID1963974 (Molecular Pharmacology Branch, DTP, NCI, 2024)
